In patent US10508089B2, “Use of N-(1,3,4-Oxadiazol-2-yl)arylcarboxamides or their salts for controlling unwanted plants in areas of transgenic crop plants being tolerant to HPPD inhibitor herbicides” (BASF SE, priority 2014, dated 2019):
Where two headings read alike, the source gives them in different places.

Experiments:
[1] = tested on: wild type soybean Merlin; format: in vivo; conditions: 14 days after treatment, total 4
[2] = tested on: T2 soybean events expressing PfHPPD-Evo41; format: in vivo; conditions: 14 days after treatment
[3] = tested on: T3 cotton events expressing PfHPPD-Evo41; format: in vivo; conditions: 200 g Al/ha, post-emergence V3, scored after 14 days, field
[4] = biological target: FMP 37 SEQ ID No 9 (Blepharisma japonicum, UniProt A8R3H6); assay: Determination of HPPD activity in presence of N-(1,3,4-Oxadiazol-2-yl)arylcarboxamides (pI50); format: biochemical; conditions: negative log of molar concentration; inhibitor 0.1 to 100 μM; room temperature; 600 μM HPP
FMP 37 SEQ ID No 9, sequence (A8R3H6 entry or part of it): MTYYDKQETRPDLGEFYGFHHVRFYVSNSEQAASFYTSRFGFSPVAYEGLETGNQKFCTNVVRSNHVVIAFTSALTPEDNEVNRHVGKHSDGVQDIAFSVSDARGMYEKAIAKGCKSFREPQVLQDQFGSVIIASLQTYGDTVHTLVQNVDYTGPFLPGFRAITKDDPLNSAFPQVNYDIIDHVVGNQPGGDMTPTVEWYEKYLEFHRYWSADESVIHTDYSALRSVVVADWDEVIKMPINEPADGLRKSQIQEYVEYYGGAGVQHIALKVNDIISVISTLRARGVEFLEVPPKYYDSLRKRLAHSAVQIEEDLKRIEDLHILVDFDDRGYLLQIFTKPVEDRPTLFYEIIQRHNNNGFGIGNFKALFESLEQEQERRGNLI
Description: (§1) HPPD activity was measured at room temperature by adding appropriate amounts of HPPD to a solution of 200 mM Tris-HCl pH 7.6, 10 mM ascorbate, 20 μM FeSO4, 650 units of catalase, 8 μg HGA dioxygenase (HGA: homogentisate) and 600 μM HPP in a total volume of 1 ml. Initial reaction rates in the absence or presence of inhibitors were determined from the increase in absorbance at 318 nm due to the formation of maleylacetoacetate (ϵ318=11,900 M−1 cm−1). pI50-values (the negative log values of the concentration of inhibitor necessary to inhibit 50% of the enzyme activity in molar concentration were determined from dose-response plots of HPPD activity versus inhibitor concentrations tested (0.1 to 100 μM) using the 4 Parameter Logistic Model or Sigmoidal Dose-Response Model of the ID Business Solutions Ltd. XLfit software suite. Due to the UV absorption of the HPPD inhibitors tested, inhibitor concentrations >100 μM could not be tested. In cases, the symbol “>” is used this means that the value was far higher than the one indicated but could not be precisely calculated within in the range of concentration of inhibitor tested.
(§2) In the 1st column of Table 8, the chemical compound employed in the assay is named (according to the numbering of the Tables 1 to 7, above). In columns 2, 3, 4, and 5 the pI50-values of the corresponding chemical compounds against various HPPD enzymes (name and SEQ ID Nos are indicated, respectively) are given.

[5] = biological target: Avena HPPD SEQ ID No 2 (Avena sativa, UniProt A0ACD5V6K6); assay: as above; format: biochemical; conditions: negative log of molar concentration; inhibitor 0.1 to 100 μM; room temperature; 600 μM HPP
Avena HPPD SEQ ID No 2, sequence (A0ACD5V6K6 entry or part of it): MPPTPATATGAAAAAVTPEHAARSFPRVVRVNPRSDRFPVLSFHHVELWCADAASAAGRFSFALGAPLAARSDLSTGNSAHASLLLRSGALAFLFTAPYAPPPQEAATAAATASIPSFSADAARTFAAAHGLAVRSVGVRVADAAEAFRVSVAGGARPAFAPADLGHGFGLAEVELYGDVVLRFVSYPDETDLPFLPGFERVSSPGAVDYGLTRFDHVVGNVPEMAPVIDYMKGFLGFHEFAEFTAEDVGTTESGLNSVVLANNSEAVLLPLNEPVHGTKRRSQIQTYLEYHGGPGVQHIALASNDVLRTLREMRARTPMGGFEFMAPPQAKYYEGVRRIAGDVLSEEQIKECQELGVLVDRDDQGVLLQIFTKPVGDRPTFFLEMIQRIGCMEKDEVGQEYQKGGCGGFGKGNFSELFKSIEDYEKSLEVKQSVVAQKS
Description: as §1, §2

[6] = tested on: T3 cotton events expressing PfHPPD-Evo33; format: in vivo; conditions: 200 g Al/ha, post-emergence V3, scored after 14 days, field
[7] = tested on: T2 soybean events expressing PfHPPD-Evo40; format: in vivo; conditions: 14 days after treatment
[8] = tested on: wild type soybean Thorne; format: in vivo; conditions: 14 days after treatment, total 4
[9] = tested on: T2 soybean events expressing PfHPPD-W336 (PfHPPD-G336W); format: in vivo; conditions: 14 days after treatment
[10] = biological target: PfHPPD Evo 40 SEQ ID No 27 (Pseudomonas sp., UniProt P80064, A172V/A339E/A53E/D148E/D45N/E105D/E287Q/E300V/E334P/F143Y/G286D/G335S/H150N/H254A/H63N/I158V/I187A/I249V/K92N/L18F/N24G/N280D/S245T/S257K/S301E/T205S/V65I); assay: biochemical; set-up: species or system Pseudomonas fluorescens
PfHPPD Evo 40 SEQ ID No 27, sequence (P80064 1-354 with tags or gaps with the stated changes limits assumed): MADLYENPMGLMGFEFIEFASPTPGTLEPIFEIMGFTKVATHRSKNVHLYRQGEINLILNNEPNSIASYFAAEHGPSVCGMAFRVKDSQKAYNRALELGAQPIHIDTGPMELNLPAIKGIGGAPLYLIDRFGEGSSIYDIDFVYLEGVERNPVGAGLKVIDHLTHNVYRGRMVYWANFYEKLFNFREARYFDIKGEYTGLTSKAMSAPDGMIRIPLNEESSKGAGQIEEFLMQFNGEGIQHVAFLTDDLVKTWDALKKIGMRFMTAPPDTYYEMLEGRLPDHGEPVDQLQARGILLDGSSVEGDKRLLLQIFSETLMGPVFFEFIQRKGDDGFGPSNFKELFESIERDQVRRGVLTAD

Cc1nnc(NC(=O)c2ccc(C(F)(F)F)c(S(C)(=O)=O)c2C)o1 [Compound 2-145]
Number of plants categorized herbicide tolerance “0” (marginal; 41%-100% damaged leaf area) ([1]; Merlin (wt), 6.25 g Al/ha): 4 | Number of plants categorized herbicide tolerance “1” (moderate; 26%-40% damaged leaf area) ([1]; Merlin (wt), 6.25 g Al/ha): 0 | Number of plants categorized herbicide tolerance “2” (good; 16%-25% damaged leaf area) ([1]; Merlin (wt), 6.25 g Al/ha): 0 | Number of plants categorized herbicide tolerance “3” (high; less than or equal to 15% damaged leaf area) ([1]; Merlin (wt), 6.25 g Al/ha): 0 | Number of plants categorized herbicide tolerance “0” (marginal; 41%-100% damaged leaf area) ([1]; Merlin, 25 g Al/ha): 4 | Number of plants categorized herbicide tolerance “1” (moderate; 26%-40% damaged leaf area) ([1]; Merlin, 25 g Al/ha): 0 | Number of plants categorized herbicide tolerance “2” (good; 16%-25% damaged leaf area) ([1]; Merlin, 25 g Al/ha): 0 | Number of plants categorized herbicide tolerance “3” (high; less than or equal to 15% damaged leaf area) ([1]; Merlin, 25 g Al/ha): 0 | Number of plants categorized herbicide tolerance “0” (marginal; 41%-100% damaged leaf area) ([2]; 6.25 g Al/ha, total 12): 0 | Number of plants categorized herbicide tolerance “1” (moderate; 26%-40% damaged leaf area) ([2]; 6.25 g Al/ha, total 12): 1 | Number of plants categorized herbicide tolerance “2” (good; 16%-25% damaged leaf area) ([2]; 6.25 g Al/ha, total 12): 0 | Number of plants categorized herbicide tolerance “3” (high; less than or equal to 15% damaged leaf area) ([2]; 6.25 g Al/ha, total 12): 11 | Number of plants categorized herbicide tolerance “0” (marginal; 41%-100% damaged leaf area) ([2]; 25 g Al/ha, total 16): 0 | Number of plants categorized herbicide tolerance “1” (moderate; 26%-40% damaged leaf area) ([2]; 25 g Al/ha, total 16): 0 | Number of plants categorized herbicide tolerance “2” (good; 16%-25% damaged leaf area) ([2]; 25 g Al/ha, total 16): 0 | Number of plants categorized herbicide tolerance “3” (high; less than or equal to 15% damaged leaf area) ([2]; 25 g Al/ha, total 16): 16 | Number of plants categorized herbicide tolerance “0” (marginal; 41%-100% damaged leaf area) ([2]; 50 g Al/ha, total 4): 0 | Number of plants categorized herbicide tolerance “1” (moderate; 26%-40% damaged leaf area) ([2]; 50 g Al/ha, total 4): 0 | Number of plants categorized herbicide tolerance “2” (good; 16%-25% damaged leaf area) ([2]; 50 g Al/ha, total 4): 2 | Number of plants categorized herbicide tolerance “3” (high; less than or equal to 15% damaged leaf area) ([2]; 50 g Al/ha, total 4): 2 | Number of plants categorized herbicide tolerance “0” (marginal; 41%-100% damaged leaf area) ([2]; 75 g Al/ha, total 4): 0 | Number of plants categorized herbicide tolerance “1” (moderate; 26%-40% damaged leaf area) ([2]; 75 g Al/ha, total 4): 0 | Number of plants categorized herbicide tolerance “2” (good; 16%-25% damaged leaf area) ([2]; 75 g Al/ha, total 4): 0 | Number of plants categorized herbicide tolerance “3” (high; less than or equal to 15% damaged leaf area) ([2]; 75 g Al/ha, total 4): 4 | Average maximum phytotoxicity scoring ([3]; cotton event Evo41/1): 3 (“3” = high tolerance; 0%-10% damaged leaf area) | Average maximum phytotoxicity scoring ([3]; cotton event Evo41/2): 3 (“3” = high tolerance; 0%-10% damaged leaf area) | Average maximum phytotoxicity scoring ([3]; cotton event Evo41/3): 3 (“3” = high tolerance; 0%-10% damaged leaf area) | Average maximum phytotoxicity scoring ([3]; cotton event Evo41/4): 3 (“3” = high tolerance; 0%-10% damaged leaf area) | Average maximum phytotoxicity scoring ([3]; cotton event Evo41/5): 3 (“3” = high tolerance; 0%-10% damaged leaf area) | Average maximum phytotoxicity scoring ([3]; cotton event Evo41/6): 3 (“3” = high tolerance; 0%-10% damaged leaf area) | Average maximum phytotoxicity scoring ([3]; cotton event Evo41/7): 3 (“3” = high tolerance; 0%-10% damaged leaf area) | Average maximum phytotoxicity scoring ([3]; cotton event Evo41/8): 3 (“3” = high tolerance; 0%-10% damaged leaf area) | Average maximum phytotoxicity scoring ([3]; cotton event Evo41/9): 3 (“3” = high tolerance; 0%-10% damaged leaf area) | Average maximum phytotoxicity scoring ([3]; cotton event Evo41/10): 3 (“3” = high tolerance; 0%-10% damaged leaf area) | Average maximum phytotoxicity scoring ([3]; cotton event Evo41/11): 3 (“3” = high tolerance; 0%-10% damaged leaf area) | Average maximum phytotoxicity scoring ([3]; cotton event Evo41/12): 2 (“2” = good tolerance; 11%-15% damaged leaf area) | Average maximum phytotoxicity scoring ([3]; cotton event Evo41/13): 3 (“3” = high tolerance; 0%-10% damaged leaf area) | Average maximum phytotoxicity scoring ([3]; cotton event Evo41/14): 3 (“3” = high tolerance; 0%-10% damaged leaf area) | Average maximum phytotoxicity scoring ([3]; cotton event Evo41/15): 3 (“3” = high tolerance; 0%-10% damaged leaf area) | IC50 [4]: 10 µM | IC50 [5]: 1580 nM | Average maximum phytotoxicity scoring ([6]; cotton event Evo33/1): 3 (“3” = high tolerance; 0%-10% damaged leaf area) | Average maximum phytotoxicity scoring ([6]; cotton event Evo33/2): 3 (“3” = high tolerance; 0%-10% damaged leaf area) | Average maximum phytotoxicity scoring ([6]; cotton event Evo33/3): 3 (“3” = high tolerance; 0%-10% damaged leaf area) | Average maximum phytotoxicity scoring ([6]; cotton event Evo33/4): 3 (“3” = high tolerance; 0%-10% damaged leaf area) | Average maximum phytotoxicity scoring ([6]; cotton event Evo33/5): 3 (“3” = high tolerance; 0%-10% damaged leaf area) | Average maximum phytotoxicity scoring ([6]; cotton event Evo33/6): 3 (“3” = high tolerance; 0%-10% damaged leaf area) | Number of plants categorized herbicide tolerance “0” (marginal; 41%-100% damaged leaf area) ([7]; 6.25 g Al/ha, total 8): 0 | Number of plants categorized herbicide tolerance “1” (moderate; 26%-40% damaged leaf area) ([7]; 6.25 g Al/ha, total 8): 0 | Number of plants categorized herbicide tolerance “2” (good; 16%-25% damaged leaf area) ([7]; 6.25 g Al/ha, total 8): 0 | Number of plants categorized herbicide tolerance “3” (high; less than or equal to 15% damaged leaf area) ([7]; 6.25 g Al/ha, total 8): 8 | Number of plants categorized herbicide tolerance “0” (marginal; 41%-100% damaged leaf area) ([7]; 25 g Al/ha, total 12): 0 | Number of plants categorized herbicide tolerance “1” (moderate; 26%-40% damaged leaf area) ([7]; 25 g Al/ha, total 12): 0 | Number of plants categorized herbicide tolerance “2” (good; 16%-25% damaged leaf area) ([7]; 25 g Al/ha, total 12): 0 | Number of plants categorized herbicide tolerance “3” (high; less than or equal to 15% damaged leaf area) ([7]; 25 g Al/ha, total 12): 12 | Number of plants categorized herbicide tolerance “0” (marginal; 41%-100% damaged leaf area) ([7]; 50 g Al/ha, total 4): 0 | Number of plants categorized herbicide tolerance “1” (moderate; 26%-40% damaged leaf area) ([7]; 50 g Al/ha, total 4): 0 | Number of plants categorized herbicide tolerance “2” (good; 16%-25% damaged leaf area) ([7]; 50 g Al/ha, total 4): 0 | Number of plants categorized herbicide tolerance “3” (high; less than or equal to 15% damaged leaf area) ([7]; 50 g Al/ha, total 4): 4 | Number of plants categorized herbicide tolerance “0” (marginal; 41%-100% damaged leaf area) ([7]; 75 g Al/ha, total 4): 0 | Number of plants categorized herbicide tolerance “1” (moderate; 26%-40% damaged leaf area) ([7]; 75 g Al/ha, total 4): 0 | Number of plants categorized herbicide tolerance “2” (good; 16%-25% damaged leaf area) ([7]; 75 g Al/ha, total 4): 0 | Number of plants categorized herbicide tolerance “3” (high; less than or equal to 15% damaged leaf area) ([7]; 75 g Al/ha, total 4): 4 | Number of plants categorized herbicide tolerance “0” (marginal; 41%-100% damaged leaf area) ([8]; Thorne (wt), 6.25 g Al/ha): 4 | Number of plants categorized herbicide tolerance “1” (moderate; 26%-40% damaged leaf area) ([8]; Thorne (wt), 6.25 g Al/ha): 0 | Number of plants categorized herbicide tolerance “2” (good; 16%-25% damaged leaf area) ([8]; Thorne (wt), 6.25 g Al/ha): 0 | Number of plants categorized herbicide tolerance “3” (high; less than or equal to 15% damaged leaf area) ([8]; Thorne (wt), 6.25 g Al/ha): 0 | Number of plants categorized herbicide tolerance “0” (marginal; 41%-100% damaged leaf area) ([8]; Thorne, 25 g Al/ha): 4 | Number of plants categorized herbicide tolerance “1” (moderate; 26%-40% damaged leaf area) ([8]; Thorne, 25 g Al/ha): 0 | Number of plants categorized herbicide tolerance “2” (good; 16%-25% damaged leaf area) ([8]; Thorne, 25 g Al/ha): 0 | Number of plants categorized herbicide tolerance “3” (high; less than or equal to 15% damaged leaf area) ([8]; Thorne, 25 g Al/ha): 0 | Number of plants categorized herbicide tolerance “0” (marginal; 41%-100% damaged leaf area) ([9]; 6.25 g Al/ha, total 12): 1 | Number of plants categorized herbicide tolerance “1” (moderate; 26%-40% damaged leaf area) ([9]; 6.25 g Al/ha, total 12): 0 | Number of plants categorized herbicide tolerance “2” (good; 16%-25% damaged leaf area) ([9]; 6.25 g Al/ha, total 12): 0 | Number of plants categorized herbicide tolerance “3” (high; less than or equal to 15% damaged leaf area) ([9]; 6.25 g Al/ha, total 12): 11 | Number of plants categorized herbicide tolerance “0” (marginal; 41%-100% damaged leaf area) ([9]; 25 g Al/ha, total 16): 0 | Number of plants categorized herbicide tolerance “1” (moderate; 26%-40% damaged leaf area) ([9]; 25 g Al/ha, total 16): 2 | Number of plants categorized herbicide tolerance “2” (good; 16%-25% damaged leaf area) ([9]; 25 g Al/ha, total 16): 3 | Number of plants categorized herbicide tolerance “3” (high; less than or equal to 15% damaged leaf area) ([9]; 25 g Al/ha, total 16): 11 | Number of plants categorized herbicide tolerance “0” (marginal; 41%-100% damaged leaf area) ([9]; 50 g Al/ha, total 4): 0 | Number of plants categorized herbicide tolerance “1” (moderate; 26%-40% damaged leaf area) ([9]; 50 g Al/ha, total 4): 0 | Number of plants categorized herbicide tolerance “2” (good; 16%-25% damaged leaf area) ([9]; 50 g Al/ha, total 4): 1 | Number of plants categorized herbicide tolerance “3” (high; less than or equal to 15% damaged leaf area) ([9]; 50 g Al/ha, total 4): 3 | Number of plants categorized herbicide tolerance “0” (marginal; 41%-100% damaged leaf area) ([9]; 75 g Al/ha, total 4): 0 | Number of plants categorized herbicide tolerance “1” (moderate; 26%-40% damaged leaf area) ([9]; 75 g Al/ha, total 4): 1 | Number of plants categorized herbicide tolerance “2” (good; 16%-25% damaged leaf area) ([9]; 75 g Al/ha, total 4): 0 | Number of plants categorized herbicide tolerance “3” (high; less than or equal to 15% damaged leaf area) ([9]; 75 g Al/ha, total 4): 3 | IC50 [10]: 5.01 µM
